The nature of series [1]: Biotinylated T59 peptide binding, streptavidin-FITC labeling, on PPyCl. The note with it: 15 μM peptide, 0.5×0.5 cm^2 substrate. The method, then:
(§1) (b) 15 μM peptide bound to 0.5×0.5 cm^2 PPyCl substrate. (c) 15 μM peptide bound to 0.5×0.5 cm^2 PPyPSS substrate. (d) 15 μM peptide bound to 0.5×0.5 cm^2 polystyrene (PS) substrate. All samples were incubated with equal concentrations of streptavidin-FITC. Bar, 10 μm.
(§2) Additional working example data were obtained for the polypyrrole system. A peptide was synthesized whose sequence was determined from the T59 phage (ie., SEQ ID NO. 1).

A short description of series [2]: Biotinylated T59 peptide binding, streptavidin-FITC labeling, on polystyrene. Conditions: 15 μM peptide, 0.5×0.5 cm^2 substrate. Here is the method:
as §1, §2

The conditions of series [3]: serum-containing media, pH 7.4, 15% serum; 3 hr, 7 days, 3 weeks. The method, then:
Binding was studied using biotinylated T59 peptide and streptavidin-FITC labeling. (a) control substrate in which no T59 peptide was added, 0.5×0.5 cm2 PPyCl substrates (b) and (c) were incubated with 15 μM peptide, the samples were then placed in serum-containing media (pH 7.4 and 15% serum) for 3 hr (b), 7 days (c), and 3 weeks (d). Bar, 10 μm.
In addition, T59 peptide binding stability in serum-containing medium was also evaluated in working examples using immunofluorescence (note that all previous experiments were done in saline buffer).

Ends that are not written are not given here.

“THRTSTLDYFVI (also: biotinylated, position not given here) [T59 peptide]”: the “peptide binding to PPyCl” value in series [1] is given as “binds to PPyCl”. Further, in series [2], the “peptide binding to polystyrene (PS)” value is “not to PPyPSS or to polystyrene (PS)”. Further, the “binding stability of PPyCl-bound peptide” value in series [3] is listed as “a significant fraction of T59 peptides remained bound to PPyCl even after 3 weeks”.

The values are drawn from patent US7598344B2, “Composition, method and use of bi-functional biomaterials” (Board of Regents, The University of Texas System, priority 2002, dated 2009).
